Measurements: the supplement of paper PMC10307832

Assays:
Assay in all cases: relative viability (nuclei count vs DMSO), 5 days (fraction); higher = more cells survive
[1] = tested on: ABC-1
How it was run: (§1)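 Each reported value is a median over duplicate plates. It expresses relative viability: treated-well nuclei count divided by vehicle-well nuclei count. Lung cancer cell lines in 1536-well plates were dosed by pin tool a day after seeding, alone with one drug or with a fixed anchor-drug dose plus five library-drug doses (not always all listed) in √10 steps, and nuclei were counted after 5 days.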

[2] = tested on: COR-L23
How it was run: as §1

[3] = tested on: EPLC-272H
How it was run: as §1

[4] = tested on: HARA
How it was run: as §1

[5] = tested on: HCC-15
How it was run: as §1

[6] = tested on: HCC-78
How it was run: as §1

[7] = tested on: LC-2-ad
How it was run: as §1

[8] = tested on: LU99A
How it was run: as §1

[9] = tested on: NCI-H1651
How it was run: as §1

[10] = tested on: NCI-H1915
How it was run: as §1

[11] = tested on: NCI-H1993
How it was run: as §1

[12] = tested on: NCI-H2009
How it was run: as §1

[13] = tested on: NCI-H2085
How it was run: as §1

[14] = tested on: NCI-H2126
How it was run: as §1

[15] = tested on: NCI-H2342
How it was run: as §1

[16] = tested on: NCI-H2347
How it was run: as §1

[17] = tested on: NCI-H358
How it was run: as §1

[18] = tested on: NCI-H460
How it was run: as §1

[19] = tested on: NCI-H522
How it was run: as §1

[20] = tested on: NCI-H650
How it was run: as §1

[21] = tested on: NCI-H838
How it was run: as §1

[22] = tested on: PC-14
How it was run: as §1

[23] = tested on: SW 1573
How it was run: as §1

[24] = tested on: UMC-11
How it was run: as §1

**Q.** What does the source list for `C[C@@H]1CN(CC(=O)Nc2ccc3c(c2)Cc2cccc(-c4cc(=O)cc(N5CCOCC5)o4)c2S3)C[C@H](C)O1` + Cc1cc(Nc2cc(N3CCN(C)CC3)nc(Sc3ccc(NC(=O)C4CC4)cc3)n2)n[nH]1 [Tozasertib] (partner 0.1 µM)?
**A.** relative viability ([1]; first compound 0.1265 µM): 0.159; relative viability ([1]; first compound 0.4 µM): 0.184; relative viability ([1]; first compound 4 µM): 0.16; relative viability ([2]; first compound 0.04 µM): 0.199; relative viability ([2]; first compound 0.1265 µM): 0.218; relative viability ([2]; first compound 0.4 µM): 0.159; relative viability ([2]; first compound 4 µM): 0.137; relative viability ([3]; first compound 0.04 µM): 0.189; relative viability ([3]; first compound 0.1265 µM): 0.237; relative viability ([3]; first compound 0.4 µM): 0.256; relative viability ([3]; first compound 4 µM): 0.243; relative viability ([4]; first compound 0.1265 µM): 0.105; relative viability ([4]; first compound 0.4 µM): 0.0954; relative viability ([4]; first compound 4 µM): 0.104; relative viability ([5]; first compound 0.04 µM): 0.334; relative viability ([5]; first compound 0.1265 µM): 0.372; relative viability ([5]; first compound 0.4 µM): 0.385; relative viability ([5]; first compound 4 µM): 0.151; relative viability ([6]; first compound 0.04 µM): 0.397; relative viability ([6]; first compound 0.1265 µM): 0.386; relative viability ([6]; first compound 0.4 µM): 0.361; relative viability ([6]; first compound 4 µM): 0.318; relative viability ([7]; first compound 0.04 µM): 0.373; relative viability ([7]; first compound 0.1265 µM): 0.454; relative viability ([7]; first compound 0.4 µM): 0.467; relative viability ([7]; first compound 4 µM): 0.44; relative viability ([8]; first compound 0.04 µM): 0.243; relative viability ([8]; first compound 0.1265 µM): 0.257; relative viability ([8]; first compound 0.4 µM): 0.246; relative viability ([8]; first compound 4 µM): 0.251; relative viability ([9]; first compound 0.04 µM): 0.683; relative viability ([9]; first compound 0.1265 µM): 0.609; relative viability ([9]; first compound 0.4 µM): 0.602; relative viability ([9]; first compound 4 µM): 0.535; relative viability ([10]; first compound 0.04 µM): 0.364; relative viability ([10]; first compound 0.1265 µM): 0.422; relative viability ([10]; first compound 0.4 µM): 0.399; relative viability ([10]; first compound 4 µM): 0.314; relative viability ([11]; first compound 0.04 µM): 0.567; relative viability ([11]; first compound 0.1265 µM): 0.592; relative viability ([11]; first compound 0.4 µM): 0.52; relative viability ([11]; first compound 4 µM): 0.569; relative viability ([12]; first compound 0.04 µM): 0.856; relative viability ([12]; first compound 0.1265 µM): 0.682; relative viability ([12]; first compound 0.4 µM): 0.593; relative viability ([12]; first compound 4 µM): 0.503; relative viability ([13]; first compound 0.04 µM): 0.85; relative viability ([13]; first compound 0.1265 µM): 0.827; relative viability ([13]; first compound 0.4 µM): 0.739; relative viability ([13]; first compound 4 µM): 0.551; relative viability ([14]; first compound 0.04 µM): 0.898; relative viability ([14]; first compound 0.1265 µM): 0.83; relative viability ([14]; first compound 0.4 µM): 0.793; relative viability ([14]; first compound 4 µM): 0.699; relative viability ([15]; first compound 0.04 µM): 0.477; relative viability ([15]; first compound 0.1265 µM): 0.494; relative viability ([15]; first compound 0.4 µM): 0.559; relative viability ([15]; first compound 4 µM): 0.384; relative viability ([16]; first compound 0.04 µM): 0.598; relative viability ([16]; first compound 0.1265 µM): 0.646; relative viability ([16]; first compound 0.4 µM): 0.535; relative viability ([16]; first compound 4 µM): 0.448; relative viability ([17]; first compound 0.04 µM): 0.13; relative viability ([17]; first compound 0.1265 µM): 0.0927; relative viability ([17]; first compound 0.4 µM): 0.0941; relative viability ([17]; first compound 4 µM): 0.114; relative viability ([18]; first compound 0.04 µM): 0.393; relative viability ([18]; first compound 0.1265 µM): 0.397; relative viability ([18]; first compound 0.4 µM): 0.485; relative viability ([18]; first compound 4 µM): 0.0949; relative viability ([19]; first compound 0.04 µM): 0.542; relative viability ([19]; first compound 0.1265 µM): 0.56; relative viability ([19]; first compound 0.4 µM): 0.583; relative viability ([19]; first compound 4 µM): 0.557; relative viability ([20]; first compound 0.04 µM): 0.655; relative viability ([20]; first compound 0.1265 µM): 0.811; relative viability ([20]; first compound 0.4 µM): 0.698; relative viability ([20]; first compound 4 µM): 0.581; relative viability ([21]; first compound 0.04 µM): 0.255; relative viability ([21]; first compound 0.1265 µM): 0.279; relative viability ([21]; first compound 0.4 µM): 0.28; relative viability ([21]; first compound 4 µM): 0.202; relative viability ([22]; first compound 0.04 µM): 0.451; relative viability ([22]; first compound 0.1265 µM): 0.562; relative viability ([22]; first compound 0.4 µM): 0.579; relative viability ([22]; first compound 4 µM): 0.482; relative viability ([23]; first compound 0.04 µM): 0.224; relative viability ([23]; first compound 0.1265 µM): 0.18; relative viability ([23]; first compound 0.4 µM): 0.23; relative viability ([23]; first compound 4 µM): 0.231; relative viability ([24]; first compound 0.04 µM): 0.208; relative viability ([24]; first compound 0.1265 µM): 0.198; relative viability ([24]; first compound 0.4 µM): 0.19; relative viability ([24]; first compound 4 µM): 0.199
